Test results reported in patent publication US4863932A, “Squalene oxide cyclase inhibitors and therapeutic use thereof” (Somatogenetics International, Inc., priority 1988, dated 1989).
In brackets after ≈: the same amount, converted by molar mass. One block for each compound: values may come before it.

Legend:
cholesterol synthesis = experiment: Inhibition of cholesterol synthesis
fatty acid synthesis = experiment: Inhibition of fatty acid synthesis; conditions: compared with its inhibition of cholesterol synthesis
[1] = system: LDL receptor of HepG2 cells; experiment: Effect on the LDL receptor of HepG2 cells (125I-LDL binding, internalization, degradation); type: cell-based; conditions: for LDL BINDING: ± SEM; for 125I-LDL Binding / 125I-LDL Internal / 125I-LDL Degradation: HepG2 cells; for 125I-LDL Binding: untreated 57 ± 3; for 125I-LDL Internal: untreated 374 ± 9; for 125I-LDL Degradation: untreated 701 ± 38
Procedure: We have compared LA-I-140 and LN-I-83 with the conventional squalene oxide cyclase inhibitors U18666A and TMD by studying their effect on the LDL receptor of HepG2 cells.
The assay is essentially as described by Goldstein, Basu and Brown (Methods in Enzymology, 98: 241-260, 1983). Briefly, confluent cultures of HepG2 cells are incubated for 24 hours in cholesterol-free medium to induce LDL receptors. Test compounds are added to the medium at appropriate concenrations during this incubation. At the end of 24 hours [^125 I]labeled LDL (200-400 cpm/ng) is added to the medium (10-50 ug LDL protein/ml) and the cells are incubated at 37° C. for 3-6 hours.
(a) Degradation of ^125 I-LDL: The culture medium is removed from the monolayer of cells and undegraded LDL is precipitated with 10% (w/v) trichloroacetic acid.
The supernatant fraction is treated with 5% (w/v) silver nitrate to precipitate any free iodine. The radioactivity in the final supernatant fraction, which represents monoiodotyrosine, the proteolytic degradation product of ^125 I-LDL, is measured in a gamma counter.
(b) Specific binding of ^125 I-LDL: The cell monolayers are washed in a cold room (4° C.) three times rapidly with ice-cold buffer B (150 mM NaCl, 50 mM TrisHCl, pH 7.4 and 2 mg/ml bovine serum albumin). Each monolayer is incubated in buffer B for 10 minutes followed by one wash with buffer C (buffer B with bovine serum albumin omitted). Receptor-boundLDL is then released form cell surface by adding buffer D (50 mM NaCl, 10 mM HEPES, pH 7.4, 4 mg/ml dextran sulfate) and incubating at 4° C for 60 minutes on a rotary shaker (60 rotations per minute). An aliquot of buffer D is counted to determine the amount of ^125 I-LDL released from cell surface.
Internalization of ^125 I-LDL: After removal of buffer D, the cell monolayers are dissolved in 0.1 N NaOH by incubation overnight at 37° C. in a humidified incubator. The alkaline digest is briefly homogenized with the aid of a sonicator and aliquots are withdrawn for the determination of internalized radioactivity and for measurement of cell protein. All values are normalized for 1 mg of cell protein. The results are shown n Table 1 below:
In the case of PCR-II-23 and PCR-II-8B, we have examined their binding to the LDL receptors both when administered alone and in the presence of "down" regulators of this receptor (Table 2).

squalene oxide cyclase [2] = experiment: SOC inhibition in in vivo experiments
squalene oxide cyclase [3] = target: T1, squalene oxide cyclase (Rattus norvegicus, UniProt P48450)
T1 sequence (P48450 1-733): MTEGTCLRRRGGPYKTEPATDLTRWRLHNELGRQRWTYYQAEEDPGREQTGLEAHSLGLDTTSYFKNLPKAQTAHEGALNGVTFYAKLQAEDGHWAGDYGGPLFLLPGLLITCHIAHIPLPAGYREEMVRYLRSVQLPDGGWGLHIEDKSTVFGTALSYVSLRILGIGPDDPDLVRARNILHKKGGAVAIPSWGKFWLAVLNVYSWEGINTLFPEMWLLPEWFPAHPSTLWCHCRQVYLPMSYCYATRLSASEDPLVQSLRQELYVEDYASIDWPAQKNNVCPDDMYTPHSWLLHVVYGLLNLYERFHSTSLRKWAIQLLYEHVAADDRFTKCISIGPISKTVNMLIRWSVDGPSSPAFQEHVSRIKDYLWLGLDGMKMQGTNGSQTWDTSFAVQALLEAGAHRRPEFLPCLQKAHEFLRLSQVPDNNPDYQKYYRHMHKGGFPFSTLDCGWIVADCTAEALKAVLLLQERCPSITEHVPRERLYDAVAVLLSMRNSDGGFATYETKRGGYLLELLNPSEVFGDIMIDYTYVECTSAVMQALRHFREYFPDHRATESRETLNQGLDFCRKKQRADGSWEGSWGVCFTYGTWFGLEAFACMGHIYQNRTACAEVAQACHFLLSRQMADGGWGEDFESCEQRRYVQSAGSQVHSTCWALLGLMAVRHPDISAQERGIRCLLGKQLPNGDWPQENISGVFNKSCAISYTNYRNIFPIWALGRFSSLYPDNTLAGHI

[4] = system: cholesterol biosynthesis in rat liver enzyme preparations; conditions: Nelson et al. 1978; cited from earlier work
[5] = system: cholesterol biosynthesis in CHO cells; conditions: Nelson et al. 1978; cited from earlier work
[6] = incubation with rat liver homogenate; Nelson et al. 1978; cited from earlier work
SOC = conditions: Duriatti et al. 1985; cited from earlier work
[7] = system: cyclases of higher plants; conditions: Duriatti et al. 1985; cited from earlier work
squalene oxide cyclase [8] = target: T1, squalene oxide cyclase; experiment: biochemical; type: biochemical; parameters: Using a rat liver microsomal squalene oxide cyclase assay; from tissue; host or cells: rat liver microsomes / homogenate; conditions: for IC50: 40 uM [3H]-oxidosqualene, pH 7.5, anaerobic, 1 hour, 37° C, read-out: I50 (dosage needed to suppress half the SOC activity); for effectiveness as SOC inhibitor relative to TMD: ratio of I50 values, TMD as reference
Procedure: Using a rat liver microsomal squalene oxide cyclase assay, we have determined the dose at which these drugs and TMD reduce squalene oxide cyclase activity to one-half its normal value. Rat liver microsomes ([…] -rat liver homogenate) were prepared by the method of Popjak, G (Methods in Enzymology, 1969 XV, 393-545). The reaction mixture contained [^3 H]-(S)-[…] (40 uM final), Tween-80 (0.15% w/v final), 0.1 M potassium phosphate, pH 7.5, and inhibitor of varying concentration all in 0.8 ml. The reaction was initiated by the addition of 0.2 ml of the SIO homogenate. The reaction was flushed with N2 and incubated anaerobically for 1 hour at 37° C. The reaction was terminated by addition of 1 ml of 6% potassium hydroxide in methanol (w/v). […] After reduction to […], cold lanosterol was added as carrier, and the extract was applied to a silica TLC plate. After development in methylene chloride, the spot corresponding to lanosterol was scraped off and counted for radioactivity. The I50 for each inhibitor was determined from a plot of radioactive lanosterol formed versus inhibitor concentration.

[9] = system: sterol synthesis in primary rat hepatocytes; experiment: Inhibition of sterol synthesis in primary rat hepatocytes ([3H]-acetate pulse, digitonide precipitation); type: cell-based
Procedure: Primary rat hepatocytes (2.2×10^6 cells/60 mm plate) were incubated overnight with various concentrations of inhibitor. The cells are then pulsed for 1 hour with tritiated acetate, harvested by centrifugation and the lipids extracted (Bligh, E. G. and Dyer, W. J. Can. J. Biochem. Physiol. 1959, 37. 911-917). Polar lipid are separated from neutral lipids by silicic acid chromatography. The polar lipids are collected and counted for radioactive acetate incorporation, and used as control for total acetate metabolism. The neutral lipid fraction is saponified and sterols precipitated with digitonide. The digitonide precipitate is counted to measure total incorporation of radioactive acetate into sterols.
lnhibition of sterol synthesis by PCR II-23 was determined as set forth in Example 1.

lymphocytes = conditions: in vivo; cited from earlier work
[10] = inhibitor with suppressor 25-hydroxy-cholesterol (5 ug/ml), HDF 34 ± 3
[11] = inhibitor with suppressor LDL (200 ug/ml), HDF 27 ± 2
[12] = inhibitor with suppressor Mevalonate, HDF 19 ± 2
[13] = suppressor: none, HDF control 88 ± 6

SMILES: CC1(C)[C@@H](O)CC[C@]2(C)[C@@H](CO)CCC[C@@H]12 (relative stereo) [JW I-60, 4,4,10beta-trimethyl-9beta-hydroxymethyl-trans-decal-3beta-ol]
- inhibition of cholesterol synthesis (cholesterol synthesis): weak inhibitor of cholesterol synthesis
- inhibition of fatty acid synthesis (fatty acid synthesis): much more effective inhibitor of fatty acid synthesis

SMILES: C[C@H](CCCC(C)(C)O)[C@H]1CC[C@H]2[C@@H]3CC=C4C[C@@H](O)CC[C@]4(C)[C@H]3CC[C@]12C [25-hydroxy-cholesterol]
- LDL BINDING ([1]; suppressor alone in HDF, 5 ug/ml, no suppressor 88 ± 6): 34 ± 3 ng/mg cell protein

- inhibition of SOC in rat hepatocytes (squalene oxide cyclase [3]): unexpectedly poor inhibitor of SOC
- IC50 (squalene oxide cyclase [8]): 430 µM
SMILES: CC1(C)[C@@H](O)CC[C@]2(C)CCCC[C@@H]12 (relative stereo) [TMD, 4, 4,10 beta-trimethyl-trans-decal-3beta-ol]
- 125I-LDL Binding ([1]; 20 ug/ml): 130 ± 11 ng/mg cell protein
- 125I-LDL Internal ([1]; 20 ug/ml): 891 ± 202 ng/mg cell protein
- 125I-LDL Degradation ([1]; 20 ug/ml): 990 ± 71 ng/mg cell protein
- inhibition of SOC in vivo (squalene oxide cyclase [2]): unexpectedly poor inhibitor of SOC
- inhibition of cholesterol biosynthesis [4]: specifically inhibited cholesterol biosynthesis
- inhibition of cholesterol biosynthesis [5]: specifically inhibited cholesterol biosynthesis
- major product of metabolism [6]: 4,4,10beta-trimethyl-trans-decalin-3beta, 7beta-diol was isolated as the major product of TMD metabolism
- type of inhibition of SOC (SOC): nonoompetitive inhibitors of SOC
- effect on the cyclases of higher plants [7]: virtually no effect
- inhibition of squalene oxide cyclase in in vitro microsomal assays (squalene oxide cyclase [8]): effective inhibitor of squalene oxide cyclase

- IC50 (squalene oxide cyclase [8]): 160 µM
- effectiveness as SOC inhibitor relative to TMD (squalene oxide cyclase [8]): about 2.7 times
SMILES: CC1(C)CC[C@@]2(C)CC[C@H](O)C(C)(C)[C@@H]2C1 (relative stereo) [PCR II-23, 4,4,7,7, 10beta-Pentamethvl-trans-decal-3beta-ol]
- LDL BINDING [1, 10]: 117 ± 11 ng/mg cell protein
- LDL BINDING [1, 11]: 36 ± 2 ng/mg cell protein
- LDL BINDING [1, 12]: 196 ± 30 ng/mg cell protein
- LDL BINDING [1, 13]: 281 ± 18 ng/mg cell protein

SMILES: CC1(C)NCC[C@]2(C)CCCC[C@@H]12 (relative stereo) [LA-I-140, 4,4,10-trimethyl-trans-3-azadecalin]
- IC50 ([9]; Hepatocyte, primary rat hepatocytes, overnight incubation, read-out: concentration reducing sterol synthesis to one-half of normal levels): 40 mg/L (≈ 221 µM)
- 125I-LDL Binding ([1]; 20 ug/ml): 75 ± 3 ng/mg cell protein
- 125I-LDL Internal ([1]; 20 ug/ml): 642 ± 96 ng/mg cell protein
- 125I-LDL Degradation ([1]; 20 ug/ml): 408 ± 61 ng/mg cell protein

- sterol biosynthesis by primary rat hepatocytes ([9]; 50 ug/ml): no detectable sterol biosynthesis
- IC50 (squalene oxide cyclase [8]): 80 µM
- effectiveness as SOC inhibitor relative to TMD (squalene oxide cyclase [8]): ~5.4 times
SMILES: CC1(C)[C@@H](O)CC[C@]2(C)CCC3(CC3)C[C@@H]12 (relative stereo) [PCR II-8B, (4,4,10beta-trimethyl-trans-decal-3 beta-ol)--7-spiro-1'-cyclopropane]
- LDL BINDING [1, 10]: 69 ± 4 ng/mg cell protein
- LDL BINDING [1, 11]: 39 ± 4 ng/mg cell protein
- LDL BINDING [1, 12]: 176 ± 17 ng/mg cell protein
- LDL BINDING [1, 13]: 278 ± 3 ng/mg cell protein

SMILES: CC(O)(CCO)CC(=O)O (stereo not drawn) [Mevalonate]
- LDL BINDING ([1]; suppressor alone in HDF, no suppressor 88 ± 6): 19 ± 2 ng/mg cell protein

SMILES: CCN(CC)CCO[C@H]1CC[C@@]2(C)C(=CC[C@@H]3[C@@H]2CC[C@]2(C)C(=O)CC[C@@H]32)C1 [U18666A]
- 125I-LDL Binding ([1]; 5 ug/ml): 160 ± 4 ng/mg cell protein
- 125I-LDL Internal ([1]; 5 ug/ml): 1093 ± 17 ng/mg cell protein
- 125I-LDL Degradation ([1]; 5 ug/ml): 682 ± 141 ng/mg cell protein

- IC50 (squalene oxide cyclase [8]): 430 µM
SMILES: CC1(C)[C@@H](O)CC[C@]2(C)CCC(F)(F)C[C@@H]12 (relative stereo) [LN I-83, 4,4,10 beta-Trimethyl-7,7-difluoro-trans-decal-3beta-ol]
- 125I-LDL Binding ([1]; 20 ug/ml): 105 ± 12 ng/mg cell protein
- 125I-LDL Internal ([1]; 20 ug/ml): 687 ± 152 ng/mg cell protein
- 125I-LDL Degradation ([1]; 20 ug/ml): 864 ± 47 ng/mg cell protein

SMILES: CC[C@H](C)C(=O)O[C@H]1C[C@@H](C)C=C2C=C[C@H](C)[C@H](CC[C@@H]3C[C@@H](O)CC(=O)O3)[C@H]21 [Mevinolin]
- up regulation of LDL receptors in HepG2 cells ([1]; culture medium free of sterol supplements (HDF)): equally effective in up regulation of LDL receptors
- LDL BINDING [1, 10]: 3 ± 2 ng/mg cell protein
- LDL BINDING [1, 11]: 38 ± 3 ng/mg cell protein
- LDL BINDING [1, 12]: 35 ± 2 ng/mg cell protein
- LDL BINDING [1, 13]: 213 ± 4 ng/mg cell protein
- defects in glycosylation of proteins in lymphocytes (lymphocytes): defects in the glycosylation of proteins in lymphocytes which can persist for ten months after administration

SMILES: C[C@@H]1[C@@H](O)CC[C@]2(C)CCCC[C@@H]12 (relative stereo) [4,10 beta-dimethyl analogue]
- type of inhibition of SOC (SOC): nonoompetitive inhibitors of SOC
- effect on the cyclases of higher plants [7]: virtually no effect
